From paper PMC4795174 (Biochemistry, 2015)

Target: BlaC (β-lactamase) (Mycobacterium tuberculosis, UniProt P9WKD3)
Type: biochemical
Conditions: read-out: KI

Chain of BlaC (β-lactamase) (P9WKD3 41-307): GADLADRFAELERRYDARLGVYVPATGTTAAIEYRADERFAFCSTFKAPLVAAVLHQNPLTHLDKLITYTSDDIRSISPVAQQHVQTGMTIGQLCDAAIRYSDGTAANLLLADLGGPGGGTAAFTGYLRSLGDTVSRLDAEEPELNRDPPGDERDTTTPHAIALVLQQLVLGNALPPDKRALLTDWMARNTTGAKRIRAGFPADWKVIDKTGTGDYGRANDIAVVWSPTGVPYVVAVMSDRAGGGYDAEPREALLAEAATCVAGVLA

O=C(O)[C@H]1/C(=C/CO)O[C@@H]2CC(=O)N21 [clavulanate]
KI (inactivation): 6.3 µM
